Details of series [1]: method as in PMID 34606770. The following applies: Chart 1; cited from earlier work.
The conditions of series [2]: cited from earlier work.
Series [3] in a line: Phase-solubility diagram with HP-β-CD. Type of series: physicochemical. Further details: stability constant K1:2 with HP-β-CD: unit not given here.
Series [4] in a line: UVA1 (365 nm) photodegradation in aqueous buffer, UV–vis spectra / RP-HPLC. The class given is physicochemical. The following applies: for UVA1 photodegradation (spectral change): 50 μM, aqueous; for disruption on exposure to UV light: 4 h. The method, then: (§1) The samples were obtained after passage for appropriate periods and measured using an UV–vis spectrophotometer in the maximum range between 200 and 700 nm (arranged on demand) from long wavelengths toward short wavelengths to avoid unnecessary irradiation of the UV region. To obtain HPLC chromatograms, aliquots of the UV-irradiated solution were obtained by pipetting at 0, 1/5, 1/2, 1, 2, 3, 4, 24, 48, 72, 96, 120, 144, and 168 h for AVB and at 0, 1, 2, 3, and 18 h for CUR. To obtain those of OXB in the absence or presence of β-CD, the invariable samples were certified at 0 and 48 h. For the samples in acetonitrile aqueous solution or methanol aqueous solution at a ratio of 7:3, the time evolution of the UVA1 irradiated solution was examined under similar conditions.

Series [5] is described as follows: Phase-solubility diagram with β-CD. How it is done: The solutions were mechanically shaken at 298 K in a thermostatic chamber, and the supernatant was sampled and filtered after passage for appropriate periods. The concentration of the drug in the supernatant was determined using HPLC.
The phase-solubility diagram consists of the equilibrium concentration of the guest drug as the ordinate and the total concentration of the host CD as the abscissa.[45] If a straight line and parabolic curve can be approximated on the phase-solubility diagram, then, the curves are classified as AL- and AP-types in the Higuchi and Connors catalogs, respectively.[45],[46]
Multiple regression analysis of the measured data set to the total concentration of the host ([CD]) and its squares ([CD]^2) using eq 3 can be used to obtain the stability constants for a combination of the equimolar complex K1:1 and double-host associating complex K1:2.[45],[46] [drawing 3] 3 This is the sum of the dissociated (free) and associated (complexed) drug concentrations. Although the Benesi–Hildebrand equation with the square of the host concentration has been used for parabolic correlations, its validity remains unclear.
This curve is classified as the AN-type on the Higuchi and Connors catalog.[45]−[48] The curve is described by eq 4′ according to the Langmuir adsorption isotherm model.[47]−[51] To process with the linear regression analysis of ordinate ([CD]/γ) referred to abscissa ([CD]), the Hanes–Woolf expression in eq 4′ may be used [drawing 4] 4 [drawing 5] 4′ where n indicates the asymptotic concentration of the drug associated with CD (saturation, maximal γ) and K is equivalent to the drug/CD complex stability constant. […] The stoichiometry of a complex of drugs with CD is difficult to determine; the prevailing opinion is that more than one guest molecule incorporates a host molecule and that hydration or ionization of the guest regulates the solubility of the complex.[46]
Szejtili[46] stated that, in rare cases, the ascending region at lower host concentrations is followed by a plateau region, similar to that of the AN-type saturation curve. Simultaneously, it terminates at any host concentration threshold. It is named the BS-type in the Higuchi and Connors catalog,[45]−[48] and for concentrations higher than the threshold, the guest concentration decreases along a hyperbola, probably according to the solubility product KSP.[49] To analyze this type of pattern, a hypothesis that is yet to be discussed is required.[52] […] At the threshold concentration of CD, the scale of the aggregated dispersoids transcends an upper limit, and the aggregation induces subsequent sedimentation.[52] Thus, the solubility product may be considered a property of poorly soluble aggregated dispersoids containing a tolerable amount of the drug and an excess amount of CD.

Series [6] is described as follows: Photostability under solar light, UV–vis spectra. Type of series: physicochemical. The conditions noted are these: solar light 4 h, 50 μM. The method, then:
The photostability of the drug under solar light was evaluated using UV–vis spectral measurements. Sample solutions were exposed to solar light outdoors at a sunny location on a latitude of 35.92° N and a longitude of 139.91° E for 4 h, from 12:00 to 16:00, at an average temperature of 284.55 K.

Series [7] can be described thus: UVA1 (365 nm) photodegradation in isochoric acetonitrile/water solvent. Type of series: physicochemical. The method, then: as §1
Series [8] is described as follows: Flask-shaking 1-octanol/water partition, log D–pH profile fitted to Avdeef's diagram. The class given is physicochemical. The conditions noted are these: modified Britton–Robinson buffers pH 5–11.5, 298 K. How it is done:
The aqueous-phase solvents were prepared by mixing 25 mM KH2PO4 and 25 mM Na2HPO4 solutions in 25 mM Pi buffer. The pH was adjusted before fixing the prescribed concentrations of the acid components of the buffer. The JP1 and JP2 buffer solutions were 10 mM sodium citrate/HCl buffer (pH 1.2) and Pi buffer (pH 6.8), which were prepared in compliance with the description for solution media for the dissolution test in Japanese Pharmacopeia (JP)-implemented international harmonization. The modified Britton–Robinson universal pH buffer comprised 28.6 mM KH2PO4, 28.6 mM HBO2, and 28.6 mM NaCl, titrated with 1 M NaOH (here, modified means elimination of barbital to cancel its interaction with organic solutes). For the partition equilibrium examination, the aqueous saturated 1-octanol phase comprised 1-octanol, which was flooded with a modified Britton–Robinson buffer adjusted to the appropriate pH in advance.
The hydrophobic drug dissolved in the aqueous saturated 1-octanol phase was mixed with an isochoric solution of the modified Britton–Robinson buffer (pH 5–11.5), saturated with 1-octanol. Thereafter, the samples in the screw-capped vials were machine-shaken at 298 K in a thermostatic chamber for 60 min and subsequently kept stationary for 60 min; the procedure corresponds to the conventional “flask-shaking” method.[41]−[43] After settling, the pH in the aqueous phase was confirmed using pH indicator strips (MColoHast pH 0–6.0, MQuant pH 7.5–14, and MQuant pH 0–14, Merck, Germany) to be that of the adjusted pH value. Aliquots (10 μL) from the 1-octanol and the aqueous layers were injected into the HPLC instrument. The 1-octanol/water partition coefficients, log P (equivalent to log KOW), and acid dissociation constants, pKa, were optimized using curve fitting, approximated by eq 1 [drawing 1] 1 which is Avdeef’s diagram[44] derived from the Henderson–Hasselbalch expression for the equilibrium between the protonated and deprotonated species. The curve-fitting procedures used the solver module of Microsoft Excel 2016 with the implemented GRG nonlinear option. Approximate curves corresponding to these optimized parameters were drawn, and the pKa and log P values for AVB, OXB, and CUR were obtained.

On the set-up of series [9]: method as in Yan et al. 95. The conditions noted are these: ref Yan et al. 95; cited from earlier work.
For series [10] the following is noted: cited from earlier work. This is another data set of the same source.
The conditions of series [11]: cited from earlier work. This is another data set of the same source.
Setting [12] is: 25 mM Pi/NaOH buffer pH 6.8, 298 K, Figure 2, in M-1 (unit assumed).
The mark [13] stands for this setting: 25 mM Pi/NaOH buffer pH 6.8, 298 K, Figure 2.

Where two headings read alike, the source gives them in different places. Some results are limits rather than exact numbers.

Regarding `CCOCCOC(=O)C=Cc1ccc(OC)cc1` [Cinoxate, cinoxate], the water solubility result in series [1] is “high water solubility”.

Take `O=S(=O)(O)c1ccc2[nH]c(-c3ccccc3)nc2c1` [Ensulizole, ensulizole]: the “risk / toxicity property” value in series [1] is “With photo-oxidizing properties”.

Consider `CC(O)COC[C@H]1O[C@@H]2O[C@H]3[C@H](O)[C@@H](O)[C@@H](O[C@H]4[C@H](O)[C@@H](O)[C@@H](O[C@H]5[C@H](O)[C@@H](O)[C@@H](O[C@H]6[C@H](O)[C@@H](O)[C@@H](O[C@H]7[C@H](O)[C@@H](O)[C@@H](O[C@H]8[C@H](O)[C@@H](O)[C@@H](O[C@H]1[C@H](O)[C@H]2O)O[C@@H]8COCC(C)O)O[C@@H]7COCC(C)O)O[C@@H]6COCC(C)O)O[C@@H]5COCC(C)O)O[C@@H]4COCC(C)O)O[C@@H]3COCC(C)O` (stereo partly drawn) [HP-β-CD, hydroxypropyl-β-cyclodextrin], for which the aqueous solubility result in [2] is “more than 400 mmol/L”.

On to `CC1CC(OC(=O)c2ccccc2O)CC(C)(C)C1` (stereo not shown) [Homosalate, homosalate], for which the “risk / toxicity property” value in series [1] is recorded as “endocrine-disrupting”.

For the compound `COc1ccc(C(=O)c2ccccc2)c(O)c1` [OXB], the “stability constant K1:1 with HP-β-CD” value in [3] (setting [12]) came out at 366.8. In addition, in [3] (pH 6.8), the “phase-solubility diagram type (Higuchi and Connors) with HP-β-CD” value is “AL-type”. In addition, the “UVA1 photodegradation (spectral change)” value in series [4] (absence of β-CD) and in series [4] (presence of β-CD) was “maintenance of the OXB spectrum for 2 days” throughout. Also, the “stability constant K1:1 with β-CD” value in series [5] (setting [12]) is given as 2019. Moreover, in [6] (presence or absence of β-CD), the “stability under solar light compared to UVA1 irradiation” value is reported as “more significant than that observed under UVA1 irradiation”. Moreover, the “concentration change under UVA1 irradiation (290 nm absorbance)” value in [7] (up to 50 h) was “marginally reduced”. Further, the pKa – broadly, the pH at which an ionisable group is half protonated – in [8] (from log D–pH curve fitting, read-out: acid dissociation constant, pKa) was 7.97. The logP in series [8] (neutral form, curve fitting, read-out: 1-octanol/water partition coefficient, log P) is 2.99. For the same compound, in series [2] (Chart 1), the “log Kow” value was 3.79. Also, in series [2], the “reported pKa” value is 7.6.

Consider `CCCCC(CC)COC(=O)C=Cc1ccc(OC)cc1` (stereo not shown) [Octinoxate (OCX), octinoxate], for which, in series [1], the “risk / toxicity property” value is recorded as “toxic risks for the marine ecosystem”.

Turning to `CCCCC(CC)COC(=O)C(C#N)=C(c1ccccc1)c1ccccc1` (stereo not shown) [Octocrylene (OCR), octocrylene], the biodegradability result in series [1] was “poorly biodegradable”.

Take `CCCCC(CC)COC(=O)c1ccc(N(C)C)cc1` (stereo not shown) [Padimate-O, padimate O]: in series [1], the “risk / toxicity property” value is recorded as “insignificant risks”.

Consider curcumin, for which the “degradation under 425 nm light compared to 620 nm light” value in series [9] was 1.7 times faster. Further, the “stability constant K1:1 with HP-β-CD” value is reported as 3073 M^–1 in series [10] (ref Celebioglu and Uyar 84); 2941 M^–1 in series [10] (ref Li et al. 85); 6619 in [3] (setting [12]); 6619 M^–1 in [3] (pH 6.8). Further, the “stability constant K1:2 with HP-β-CD” value in [3] (setting [13]) stood at 2.302. For the same compound, the “phase-solubility diagram type (Higuchi and Connors) with HP-β-CD” value in series [3] (pH 6.8) was “AP-type”. In addition, the “disruption on exposure to UV light” value in series [4] (solution containing β-CD) is given as 31.90%; in series [4] (solution without β-CD), 40.95%. Further, the “stability constant K1:2 with β-CD” value in series [5] (setting [13]) is 74.41. For the same compound, the “stability constant K1:1 with β-CD” value in series [5] (setting [12]) is given as 771.7; in [5] (pH 6.8), 771.7 M^–1; in series [11] (ref Chen et al. 83), 198 M^–1; in series [11] (ref Mashaqbef et al. 81), 487.3 M^–1. Besides, the “phase-solubility diagram type (Higuchi and Connors) with β-CD” value in [5] (pH 6.8) is listed as “AP-type”. Also, the “change in absorption peaks under solar light” value in series [6] (presence of β-CD) was “significant changes in absorption peaks”. Besides, in series [11], the “CUR saturation concentration in reported AN-type diagram” value was not above 0.00012 mM. Further, the “CUR solubility in reported phase-solubility diagram” value in series [11] (speculated by the authors from the report) was not above 16 µM. For the same compound, in series [7] (UVA1 365 nm, 25 μM), the “effect of equimolar and 4 mM β-CD on photodegradation velocity / first-order rate” value is reported as “decreased”. The “acid dissociation constant, pKa” value in [8] (from log D–pH curve fitting) was determined as 8.81. In series [8] (neutral form, curve fitting), the “1-octanol/water partition coefficient, log P” value was found to be 2.65. In addition, the log P (usually a log measure of how a compound divides between an organic and an aqueous phase) in series [2] is listed as 3.2. Also, the “updated pKa (first value)” value in [2] is reported as 7.56. Further, in series [2], the “updated pKa (second value)” value is listed as 8.72. Also, in series [2], the “updated pKa (third value)” value is on record as 10.17. Besides, in [2] (first of three pKa values), the “pKa (keto-enol)” value is 7.8. Moreover, the “pKa (first phenolic OH)” value in [2] (second of three pKa values) is 8.5. Besides, the “pKa (second phenolic OH)” value in [2] (third of three pKa values) is reported as 9.0.

(Values after article PMC11755785 (Langmuir, 2025).)
